# Literature values in patent US20230123388A1 (GLANIS PHARMACEUTICALS, INC., priority 2020, published 2023).
# Where a name gives a salt, the structure may show the parent alone. Read-outs that look alike come from different tables or passages of the source.
# Tests used:
# [1] = not given; remark: listed apart in the source
# [2] = system: albumin and apha1-acid glycoprotein
solubility in alcohol (alcohol),solubility in chloroform (chloroform),solubility in ether (ether),solubility in water (water),time of peak concentration ([1]; 200 mg oral dose),"peak concentration in blood ([1]; 200 mg oral dose, blood)","plasma concentration (peak) ([1]; 200 mg oral dose, plasma)",terminal half-life ([1]; based on blood concentration) [days],terminal half-life ([1]; based on the plasma concentration profile) [days],clearance ([1]; in vivo) [L/h],half-life ([1]; in vivo) [days],"volume of distribution ([1]; in vivo, listed as HCQ)",oral bioavailability ([1]; oral tablet),"bioavailability ([1]; randomized cross over study, 155 mg dose oral and IV infusion)",protein binding [2] [%],Structure (SMILES)
practically insoluble,practically insoluble,practically insoluble,freely soluble,–,–,–,–,–,–,–,–,–,–,–,CCN(CCO)CCCC(C)Nc1ccnc2cc(Cl)ccc12 (stereo not drawn) [Hydroxychloroquine sulfate]
–,–,–,–,around 3 hours,around 129.6 ng/ml,around 50.3 ng/ml,30 to 60,~32,15.5,~2.08,very large and high,about 75%,0.74,~40,CCN(CCO)CCCC(C)Nc1ccnc2cc(Cl)ccc12 (stereo not drawn) [Hydroxychloroquine]
